The target in this test is T1, human NPY Y5 receptors (Homo sapiens, UniProt Q15761).
T1 construct: expressed in transfected cells; host or cells: HEK-293
T1 sequence (Q15761 1-445): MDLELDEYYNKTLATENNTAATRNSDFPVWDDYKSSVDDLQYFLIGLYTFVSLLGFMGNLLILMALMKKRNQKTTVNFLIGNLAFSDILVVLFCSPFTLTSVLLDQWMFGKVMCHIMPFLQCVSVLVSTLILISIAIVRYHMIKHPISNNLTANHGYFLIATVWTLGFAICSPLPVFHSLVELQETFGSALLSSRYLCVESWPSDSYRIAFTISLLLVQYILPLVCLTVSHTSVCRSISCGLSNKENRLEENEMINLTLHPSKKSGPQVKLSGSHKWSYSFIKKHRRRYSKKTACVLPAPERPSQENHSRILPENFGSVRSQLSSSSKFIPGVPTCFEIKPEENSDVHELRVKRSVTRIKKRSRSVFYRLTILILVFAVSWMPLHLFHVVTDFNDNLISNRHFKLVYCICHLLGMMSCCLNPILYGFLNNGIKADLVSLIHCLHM
Put plainly: Inhibition of [125I]-PYY binding to HEK-293 cells expressing human NPY Y5 receptors. The conditions noted are these: HEK-293 cells stably expressing human NPY Y5 receptors, 25° C., 120 minutes. How it is done: Effects on binding ability of PYY(peptide YY) to HEK(human embryo kidneys)-293 cells transducted with human NPY(neuropeptide Y) Y5 receptors
HEK-293 cells, which stably manifest human NPY Y5 receptors, were incubated at 25° C. for 120 minutes in the […] of test compounds in an assay medium containing 0.1 mM PMSF (phenylmethylsulfonyl fluoride), 0.05% bacitracin, 0.1% BSA (bovine serum albumin) and 25mM Tris HCl (pH 7.4). The non-specific binding was measured in the presence of […] non-labelled PYY. The reaction was terminated by rapidly filtering with Wattmann GF/C glass fiber filter with using the cell harvester. After the glass fiber filter was washed with 150 mM sodium chloride and 25 mM Tris HCl buffer solution (pH 7.4) containing 0.01% BSA, radioactivity of the […] was measured by using the γ-counter. The IC50 value of the test compound was determined by the inhibition of [^125I]-PYY binding obtained by the test compound at various concentrations. The test compound is represented with the Example number in which the compound was obtained.

By IC50 is commonly meant the concentration at which inhibition is half-maximal. Compound `COc1ccc2c(c1)-c1c(nc(-c3ccccc3)n1O)CCC2` [2 (1), 9-Methoxy-2-phenyl-5,6-dihydro-4H-1,3-diazabenzo[e]azulen-1-ol] returned a half-maximal inhibitory concentration (IC50) of 24 nM.
Under `COc1ccc2c(c1)-c1nc(-c3ccccc3)[nH]c1CCC2` [8 (1), 9-Methoxy-2-phenyl-3,4,5,6-tetrahydro-1,3-diazabenzo[e]azulene] stands 25 nM; under `COc1ccc2c(c1)-c1nc(-c3cccnc3)[nH]c1CCC2` [8 (2), 9-Methoxy-2-(pyridin-3-yl)-3,4,5,6-tetrahydro-1,3-diazabenzo[e]azulene], 6.3 nM.
The compound `COc1ccc2c(c1)-c1nc(-c3ccccn3)[nH]c1CCC2` [8 (3), 9-Methoxy-2-(pyridin-2-yl)-3,4,5,6-tetrahydro-1,3-diazabenzo[e]azulene] had an IC50 of 120 nM. Against the preceding compound, the IC50 is about 19-fold higher.
As for `COc1ccc2c(c1)-c1nc(-c3ccccc3)[nH]c1CC2` [8 (4), 8-Methoxy-2-phenyl-4,5-dihydronaphtho[1,2-d]imidazole], the figure is 51 nM.
`c1ccc(-c2nc3c([nH]2)-c2ccccc2CCC3)cc1` [8 (5), 2-Phenyl-5,6-dihydro-4H-1,3-diazabenzo[e]azulene]: the IC50 was determined as 5.8 nM.
Under `c1ccc(-c2nc3c([nH]2)-c2ccccc2CCC3)nc1` [8 (6), 2-(Pyridin-2-yl)-5,6-dihydro-4H-1,3-diazabenzo[e]azulene] stands 130 nM; under `c1cncc(-c2nc3c([nH]2)-c2ccccc2CCC3)c1` [8 (7), 2-(Pyridin-3-yl)-5,6-dihydro-4H-1,3-diazabenzo[e]azulene], 7.3 nM; under `c1ccc2c(c1)CCCc1nc(-c3ccncc3)[nH]c1-2` [8 (8), 2-(Pyridin-4-yl)-5,6-dihydro-4H-1,3-diazabenzo[e]azulene], 20 nM.
Under `c1ccc2c(c1)CCCc1nc(-c3ccc4c(c3)OCCO4)[nH]c1-2` [8 (9), 2-(1,4-Benzodioxan-6-yl)-5,6-dihydro-4H-1,3-diazabenzo[e]azulene] stands 180 nM; under `CC(C)n1nc(-c2nc3c([nH]2)-c2ccccc2CCC3)ccc1=O` [8 (10), 2-(1-Isopropyl-6-oxo-1,6-dihydropyridazin-3-yl)-5,6-dihydro-4H-1,3-diazabenzo[e]azulene], 260 nM.
Turning to `c1ccc2c(c1)CCCc1[nH]c(-c3c[nH]cn3)nc1-2` [8 (11)], the IC50 turned out to be 550 nM.
Under `Cc1ccc2c(c1)-c1[nH]c(-c3ccccn3)nc1CCC2` [8 (12), 2-(Pyridin-2-yl)-5,6-dihydro-9-methyl-4H-1,3-diazabenzo[e]azulene] stands 32 nM; under `Cc1ccc2c(c1)-c1[nH]c(-c3cccnc3)nc1CCC2` [8 (13), 2-(Pyridin-3-yl)-5,6-dihydro-9-methyl-4H-1,3-diazabenzo[e]azulene], 2.3 nM; under `Cc1ccc2c(c1)-c1[nH]c(-c3ccncc3)nc1CCC2` [8 (14), 2-(Pyridin-4-yl)-5,6-dihydro-9-methyl-4H-1,3-diazabenzo[e]azulene], 6.4 nM.
As for `c1ccc(-c2nc3c([nH]2)CCOc2ccccc2-3)cc1` [8 (15), 2-Phenyl-4,5-dihydro-3H[l]benzoxepino[4,5-d]imidazole], the figure is 61 nM; as for `Fc1ccc2c(c1)-c1nc(-c3cccnc3)[nH]c1CCC2` [10 (1), 9-Fluoro-2-(pyridin-3-yl)-5,6-dihydro-4H-1,3-diazabenzo[e]azulene], 6.9 nM.
Under `Fc1ccc2c(c1)-c1[nH]c(-c3ccncc3)nc1CCC2` [10 (2), 9-Fluoro-2-(pyridin-4-yl)-5,6-dihydro-4H-1,3-diazabenzo[e]azulene] stands 13 nM; under `COc1ccc2c(c1)-c1c(nc(-c3ccncc3)n1O)CCC2` [Example 1, 9-methoxy-2-(pyridin-4-yl)-5,6-dihydro-4H-1,3-diazabenzo[e]azulen-1-ol], 73 nM; under `COc1ccc2c(c1)-c1nc(-c3ccncc3)[nH]c1CCC2` [Example 7, 9-methoxy-2-(pyridin-4-yl)-3,4,5,6-tetrahydro-1,3-diazabenzo[e]azulene], 13 nM.
`Fc1ccc2c(c1)-c1[nH]c(-c3ccccn3)nc1CCC2` [Example 9, 9-fluoro-2-(pyridin-2-yl)-5,6-dihydro-4H-1,3-diazabenzo[e]azulene] showed an IC50 of 46 nM.
Under `Clc1ccc2c(c1)-c1[nH]c(-c3ccccc3)nc1CCC2` [Example 11, 9-chloro-2-phenyl-5,6-dihydro-4H-1,3-diazabenzo[e]azulene] stands 1.7 nM.

(Values after US20040198791A1 (priority 2001, published 2004).)
